Measurements published in article PMC7452880 (Clinical Drug Investigation, 2020).
Where two headings read alike, the source gives them in different places.

Columns and labels:
[1] = cited from earlier work
Safety assessments = assay type: in vivo, human; conditions: per treatment period; for incidences of changes in diastolic blood pressure / incidences of changes in systolic blood pressure: potentially clinically relevant changes from baseline; for Patients who experienced AEs considered to be related to the study drug: treatment-emergent
[2] = humans, over 24 h; cited from earlier work
JAK1 = conditions: cited from earlier work
human BCRP = target: T1, human BCRP (Homo sapiens, UniProt Q9UNQ0); assay: BCRP-mediated vesicular transport assay; assay type: in vitro ADME
T1 sequence (Q9UNQ0 1-655): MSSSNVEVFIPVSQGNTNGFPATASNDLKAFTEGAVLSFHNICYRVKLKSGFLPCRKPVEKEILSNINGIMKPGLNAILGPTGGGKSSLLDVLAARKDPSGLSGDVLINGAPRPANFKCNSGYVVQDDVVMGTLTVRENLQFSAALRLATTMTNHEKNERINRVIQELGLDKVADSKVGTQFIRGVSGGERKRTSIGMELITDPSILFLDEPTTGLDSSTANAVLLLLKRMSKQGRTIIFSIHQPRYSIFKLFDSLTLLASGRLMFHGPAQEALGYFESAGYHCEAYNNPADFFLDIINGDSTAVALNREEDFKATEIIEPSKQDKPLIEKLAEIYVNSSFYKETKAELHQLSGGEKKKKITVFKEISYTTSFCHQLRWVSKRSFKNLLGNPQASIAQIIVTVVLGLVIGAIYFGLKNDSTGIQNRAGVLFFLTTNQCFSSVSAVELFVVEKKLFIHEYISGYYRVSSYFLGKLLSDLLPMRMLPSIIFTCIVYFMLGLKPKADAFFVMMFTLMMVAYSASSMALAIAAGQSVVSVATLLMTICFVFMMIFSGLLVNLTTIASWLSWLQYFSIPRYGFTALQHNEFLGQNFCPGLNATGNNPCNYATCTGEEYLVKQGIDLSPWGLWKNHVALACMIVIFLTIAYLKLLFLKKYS

OAT1 = target: T2, OAT1 (Homo sapiens, UniProt Q4U2R8); assay: OAT1-mediated inhibition assay in S2 cells; assay type: in vitro ADME; conditions: OAT1-expressing S2 cells
T2 sequence (Q4U2R8 1-563): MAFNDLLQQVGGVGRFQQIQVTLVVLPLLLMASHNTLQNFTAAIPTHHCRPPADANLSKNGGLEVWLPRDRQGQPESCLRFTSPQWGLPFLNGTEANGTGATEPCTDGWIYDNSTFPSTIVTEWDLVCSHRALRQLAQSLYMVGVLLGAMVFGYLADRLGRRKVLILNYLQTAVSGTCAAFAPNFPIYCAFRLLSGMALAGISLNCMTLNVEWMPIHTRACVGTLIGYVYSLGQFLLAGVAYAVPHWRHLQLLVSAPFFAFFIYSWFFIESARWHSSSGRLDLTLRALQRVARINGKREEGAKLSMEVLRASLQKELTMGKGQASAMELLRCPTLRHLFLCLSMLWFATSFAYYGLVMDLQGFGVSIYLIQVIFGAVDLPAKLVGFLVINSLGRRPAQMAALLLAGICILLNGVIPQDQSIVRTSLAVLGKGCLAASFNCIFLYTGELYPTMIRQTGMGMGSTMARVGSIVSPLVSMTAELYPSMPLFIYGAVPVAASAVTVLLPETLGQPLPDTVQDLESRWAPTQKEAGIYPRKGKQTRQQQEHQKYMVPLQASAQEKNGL

OAT3 = target: T3, OAT3 (Homo sapiens, UniProt Q8TCC7); assay: OAT3-mediated inhibition assay in S2 cells; assay type: in vitro ADME
T3 sequence (Q8TCC7 1-542): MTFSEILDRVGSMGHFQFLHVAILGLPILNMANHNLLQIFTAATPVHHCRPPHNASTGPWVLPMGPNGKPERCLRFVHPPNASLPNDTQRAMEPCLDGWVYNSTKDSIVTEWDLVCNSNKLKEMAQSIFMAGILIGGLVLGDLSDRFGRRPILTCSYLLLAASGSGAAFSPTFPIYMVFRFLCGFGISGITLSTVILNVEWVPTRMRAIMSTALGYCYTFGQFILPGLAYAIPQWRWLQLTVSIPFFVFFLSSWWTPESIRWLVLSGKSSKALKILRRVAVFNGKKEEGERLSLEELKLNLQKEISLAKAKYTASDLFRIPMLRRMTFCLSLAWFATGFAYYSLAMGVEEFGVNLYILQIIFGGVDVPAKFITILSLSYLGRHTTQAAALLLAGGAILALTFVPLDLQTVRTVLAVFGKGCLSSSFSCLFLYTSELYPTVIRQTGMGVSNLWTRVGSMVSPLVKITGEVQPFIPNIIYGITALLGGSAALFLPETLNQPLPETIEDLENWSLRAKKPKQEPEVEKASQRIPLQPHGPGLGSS

[3] = human plasma; cited from earlier work
[4] = healthy male subjects; cited from earlier work
tyrosine kinase 2 = conditions: cited from earlier work
JAK3 = conditions: cited from earlier work
human MRP4 = target: T4, human MRP4 (Homo sapiens, UniProt O15439); assay: MRP4-mediated vesicular transport assay; assay type: in vitro ADME; conditions: membrane vesicles, peficitinib up to 100 μmol/L
T4 sequence (O15439 1-1325): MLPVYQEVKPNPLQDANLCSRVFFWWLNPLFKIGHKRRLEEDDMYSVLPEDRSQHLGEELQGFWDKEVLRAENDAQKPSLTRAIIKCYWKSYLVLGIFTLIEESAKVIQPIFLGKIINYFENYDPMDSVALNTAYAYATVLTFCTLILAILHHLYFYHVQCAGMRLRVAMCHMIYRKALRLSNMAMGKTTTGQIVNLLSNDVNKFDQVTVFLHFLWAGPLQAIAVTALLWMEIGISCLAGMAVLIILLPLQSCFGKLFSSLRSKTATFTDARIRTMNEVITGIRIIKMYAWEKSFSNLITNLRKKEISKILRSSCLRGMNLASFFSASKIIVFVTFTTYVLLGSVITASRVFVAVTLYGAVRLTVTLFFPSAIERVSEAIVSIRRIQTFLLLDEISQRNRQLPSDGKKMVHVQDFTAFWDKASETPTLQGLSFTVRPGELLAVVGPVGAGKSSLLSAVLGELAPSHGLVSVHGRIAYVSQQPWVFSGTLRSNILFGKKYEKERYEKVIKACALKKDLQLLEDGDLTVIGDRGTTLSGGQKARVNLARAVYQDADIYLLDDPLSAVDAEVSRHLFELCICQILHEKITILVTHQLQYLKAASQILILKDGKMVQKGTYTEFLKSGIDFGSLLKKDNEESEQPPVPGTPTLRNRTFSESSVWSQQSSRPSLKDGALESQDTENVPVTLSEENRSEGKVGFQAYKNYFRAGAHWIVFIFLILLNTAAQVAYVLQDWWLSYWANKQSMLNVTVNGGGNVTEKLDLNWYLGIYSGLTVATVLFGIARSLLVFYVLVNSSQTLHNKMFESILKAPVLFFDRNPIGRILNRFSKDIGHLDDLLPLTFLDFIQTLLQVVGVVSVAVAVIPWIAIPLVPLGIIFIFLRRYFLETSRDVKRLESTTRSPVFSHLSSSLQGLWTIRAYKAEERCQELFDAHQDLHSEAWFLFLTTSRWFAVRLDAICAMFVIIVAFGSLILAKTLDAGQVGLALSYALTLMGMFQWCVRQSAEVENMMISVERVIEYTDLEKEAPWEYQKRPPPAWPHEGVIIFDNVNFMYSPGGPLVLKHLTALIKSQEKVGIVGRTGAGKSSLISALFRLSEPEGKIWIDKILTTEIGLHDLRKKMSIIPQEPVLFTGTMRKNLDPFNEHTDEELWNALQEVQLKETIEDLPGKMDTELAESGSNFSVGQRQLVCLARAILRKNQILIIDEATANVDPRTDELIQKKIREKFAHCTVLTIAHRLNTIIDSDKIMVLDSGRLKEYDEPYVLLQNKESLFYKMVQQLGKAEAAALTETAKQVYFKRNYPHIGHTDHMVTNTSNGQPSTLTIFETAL

JAK2 = conditions: cited from earlier work
[5] = assay type: in vivo, human

CN(Cc1cnc2nc(N)nc(N)c2n1)c1ccc(C(=O)N[C@@H](CCC(=O)O)C(=O)O)cc1 [Methotrexate, reference compound]
effect on the pharmacokinetics of tofacitinib [1]: did not significantly affect the pharmacokinetics of tofacitinib
incidences of either high or low pulse rates (Safety assessments): 2
incidences of changes in diastolic blood pressure (Safety assessments): 7
incidences of changes in systolic blood pressure (Safety assessments): 4
Nausea (Safety assessments; treatment-emergent AE): 2 (13.3) n (%)
Patients who experienced AEs considered to be related to the study drug (Safety assessments): 2 (13.3) n (%)
dose excreted unchanged in urine [2]: over 80%

NC(=O)c1cnc2[nH]ccc2c1N[C@@H]1[C@@H]2CC3C[C@H]1C[C@@](O)(C3)C2 [Peficitinib]
IC50 (JAK1): 3.9 nM
IC50 (human BCRP): 13500 nM
inhibitory effect on OAT1 (OAT1): no significant inhibitory effects
IC50 (OAT3): 5010 nM
bound to protein [3]: 76–78%
dose excreted unchanged in urine [4]: 14%
oral dose excreted in feces [4]: approximately 57%
oral dose excreted in urine [4]: Approximately 37%
oral dose undergoing metabolism [4]: over 65%
IC50 (tyrosine kinase 2): 4.8 nM
inhibitory effect on MRP4 (human MRP4): no significant inhibitory effects
IC50 (JAK2): 5 nM
incidences of either high or low pulse rates (Safety assessments): 4
incidences of changes in diastolic blood pressure (Safety assessments): 9
incidences of changes in systolic blood pressure (Safety assessments): 3
Flatulence (Safety assessments; treatment-emergent AE): 4 (28.6) n (%)
Patients who experienced AEs considered to be related to the study drug (Safety assessments): 4 (28.6) n (%)
decrease of peficitinib Cmax with methotrexate coadministration ([5]; Day 8 vs Day 7, from geometric mean ratio): 8%
Cmax ([5]; human, plasma, oral, 100 mg, individual maximum plasma Cmax, after 100 mg BID): 405 ng/mL
